The source of these data is patent US20230324392A1, “METHODS AND COMPOSITIONS FOR TARGETING CYTOSOLIC DSDNA SIGNALING IN CHROMOSOMALLY UNSTABLE CANCERS” (MEMORIAL SLOAN KETTERING CANCER CENTER, priority 2020, published 2023).

The test system of one assay is 4T1 primary tumor. Nature of the assay: Orthotopically transplanted primary 4T1 tumors, tumor size. The assay is classed as in vivo, mouse. The conditions noted are these: orthotopic, vs vehicle. The procedure:
(§1) Animal metastasis studies: Animal experiments were performed in accordance with protocols approved by the MSKCC Institutional Animal Care and Use Committee. […] There was no need to randomize animals. Investigators were not blinded to group allocation. For tail vein injections, 5×10^4 4T1, 2.5×10^4 B16F10, or 10^5 CT26 cells were injected into the tail vein of 6-7-week old BALB/c (4T1 and CT26) or C57BL/6 (B16F10) mice. Metastasis was primarily assessed through overall survival. Overall survival endpoint was met when the mice died or met the criteria for euthanasia under the IACUC protocol. […] Surface lung metastases were assessed at endpoint by direct visual examination after euthanasia at which points lungs were perfused and fixed in 4% paraformaldehyde (4T1 and B16F10 experiments) or stained using India-ink (CT26 experiments). Furthermore, lung metastasis after injection of 4T1 cells was qualitatively assessed using routine hematoxylin and eosin (H&E) staining. […] Primary tumors were surgically excised on day 7 after implantation and metastatic dissemination was assessed by monitoring overall survival or on day 30 through quantification of surface lung metastases upon euthanasia. The length (L) and width (W) of the primary tumors were measured using calipers. Tumor size was calculated according to the following formula: L*W2/2. […]

A further assay deals with T1, murine STING isoform (Mus musculus, UniProt Q3TBT3).
T1 construct: endogenous in cells
T1 sequence (Q3TBT3 1-378): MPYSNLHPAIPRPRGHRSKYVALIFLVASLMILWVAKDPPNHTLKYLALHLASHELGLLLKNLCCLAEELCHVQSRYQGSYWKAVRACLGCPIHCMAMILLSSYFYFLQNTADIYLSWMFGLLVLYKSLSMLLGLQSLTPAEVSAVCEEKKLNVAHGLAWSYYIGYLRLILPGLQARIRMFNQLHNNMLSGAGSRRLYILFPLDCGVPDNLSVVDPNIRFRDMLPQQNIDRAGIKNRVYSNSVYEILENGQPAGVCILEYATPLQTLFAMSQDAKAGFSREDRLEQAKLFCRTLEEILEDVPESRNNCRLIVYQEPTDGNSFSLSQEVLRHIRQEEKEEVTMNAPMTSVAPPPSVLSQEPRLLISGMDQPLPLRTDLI
The assay can be described thus: Immunoblots of phosphorylated p65, RelB and IRF3 in C-176 treated tumor cells. It is filed as cell-based. The procedure: Immunoblotting: Cells were pelleted and lysed using RIPA buffer. Protein concentration was determined using BCA protein assay and 20-30 μg total protein were loaded in each lane. Proteins were separated by gradient SDS-PAGE and transferred to PVDF or nitrocellulose membranes. See Table 2 for antibody information. Membranes were imaged using the LI-COR Odyssey software. Relative STING protein levels were quantified by measuring band intensities on immunoblots using Image J software, background was subtracted and normalized to loading control. […] Cells were washed with ice-cold PBS and harvested using radio-immunoprecipitation assay (RIPA) lysis buffer containing protease and phosphatase inhibitors (Roche, Basel, Switzerland). Cells were lysed with a probe sonicator for 20 s. Protein quantification was performed using Pierce™ Rapid Gold BCA Protein Assay Kit (Thermo Fisher Scientific, Waltham, MA). Proteins were reduced at 95° C. for 5 mins with NuPAGE™ LDS Sample Buffer (4×) containing NuPAGE™ Sample Reducing Agent (10×). Lysates (40 μg protein/well) were resolved on NuPAGE™ 4-12% Bis-Tris Protein Gels (Invitro-gen) and transferred to polyvinylidene difluoride (PVDF) membranes (Thermo Fisher Scientific, Waltham, MA) using a wet transfer system. […] Images were captured by ChemiDoc Imaging Systems (Bio-Rad, UK) and densitometries were determined by ImageJ.
On the technique in general: Immunoblotting shows a protein as a band on a membrane.

The subject of assay [1] is B16F10, 4T1 or CT26 cells. Nature of the assay: Cell proliferation assay. It is filed as cell-based, mouse. The conditions noted are these: C176 at 1 μM; 12-48 hours. On the procedure:
Cell proliferation assay: Cell proliferation was determined by seeding of 5×10^3 B16F10, 4T1 or CT26 cells in 6 well plates in triplicate. Cells were treated with C176 at 1 μM (Probechem, China) or DMSO control. Thereafter cells were counted in triplicate at 12, 24, 36, and 48 hours using trypan blue staining and the EVE™ automated cell counter (NanoEnTek, South Korea).

The test system of the next assay is STING-KO B16F10 cells. The assay can be described thus: Tail vein inoculation of STING-KO B16F10 cells in C57BL/6 mice, survival. It is filed as in vivo, mouse. The settings on record: C57BL/6 mice inoculated with STING-KO B16F10 cells. On the procedure: as §1
In a further assay the test system is B16F10, 4T1, and CT26. The assay can be described thus: Wound scratch assay for cell migration. The conditions noted are these: C176 at 1 μM; all three metastatic cancer cell lines. The assay is classed as cell-based, mouse. The procedure: Wound scratch assay for cell migration: Tumor cell lines B16F10, 4T1, and CT26 were seeded in 6 well plates. When cells reached>90% confluence they were treated with 0.5 μM mitomycin C (M4287, Sigma-Aldrich, St. Louis, MO) for 2 hours, after which a wound was formed using a sterile p200 pipette tip. Thereafter cells were washed once with fresh media, following by treatment with C176 at 1 μM (Probechem, China) or DMSO control in media containing 1% FBS. Images were obtained at 0, 4, 8, and 12 hours using Olympus CKX53 microscope at 4× magnification. The wound surface area was measured and quantified using ImageJ software (MRI Wound Healing tool-dev.mri.cnrs.fr/projects/imagej-macros/wiki/Wound_Healing_Tool).

As for `O=C(Nc1ccc(I)cc1)c1ccc([N+](=O)[O-])o1` [C-176], the “4T1 primary tumor size” value with 4T1 primary tumor is given as “did not have a significant impact”. Moreover, the “phosphorylated pools of the NF-κB transcription factors p65 and RelB” value on murine STING isoform (baseline, B16F10, 4T1, CT26 cells) is on record as “significant reductions”. In addition, the IRF3 phosphorylation entry on murine STING isoform (upon transfection of 20 μg/ml cGAMP) is “suppressed”. Further, the cellular proliferation entry in assay [1] is “did not impact cellular proliferation”. In addition, the “survival advantage beyond STING KO” value in the assay on STING-KO B16F10 cells was “did not provide an additional survival advantage”. Further, the migration result in the assay with B16F10, 4T1, and CT26 was “significant reductions”.
